Measured values as given in article PMC10211317, “Identification of ARUK2002821 as an isoform-selective PI5P4Kα inhibitor” (RSC Medicinal Chemistry, 2023).

Columns and labels:
Experiment in all cases: Premier Screen kinase panel (MRC PPU)
Type in all cases: biochemical
MARK3 = MARK3 (Homo sapiens, UniProt P27448); settings: MARK3 (Entrez MARK3), read-out: Residual activity (%)
Procedure: (§1) room temperature with shaking for 30 minutes. The kinase concentration in the eluates was measured by qPCR.
(§2) using ADP-GloTM assay at the MRC PPU International Centre for Kinase Profiling, University of Dundee.
(§3) Conducted by MRC PPU International Centre
(§4) Conducted by MRC PPU International Centre for […]

SIK3 = SIK3 (Homo sapiens, UniProt Q9Y2K2); settings: SIK3 (Entrez SIK3), read-out: Residual activity (%)
Procedure: as §1, §2, §3, §4

CK2 = CK2 (Homo sapiens, UniProt P68400); settings: CK2 (Entrez CSNK2A1), read-out: Residual activity (%)
Procedure: as §1, §2, §3, §4

EPH-A4 = EPH-A4 (Homo sapiens, UniProt P54764); settings: EPH-A4 (Entrez EPHA4), read-out: Residual activity (%)
Procedure: as §1, §2, §3, §4

TTK = TTK (Homo sapiens, UniProt P33981); settings: TTK (Entrez TTK), read-out: Residual activity (%)
Procedure: as §1, §2, §3, §4

BRK = BRK (Homo sapiens, UniProt Q13882); settings: BRK (Entrez PTK6), read-out: Residual activity (%)
Procedure: as §1, §2, §3, §4

MAPKAP-K2 = MAPKAP-K2 (Homo sapiens, UniProt P49137); settings: MAPKAP-K2 (Entrez MAPKAPK2), read-out: Residual activity (%)
Procedure: as §1, §2, §3, §4

TIE2 = TIE2 (Homo sapiens, UniProt Q02763); settings: TIE2 (Entrez TEK), read-out: Residual activity (%)
Procedure: as §1, §2, §3, §4

MAP4K3 = MAP4K3 (Homo sapiens, UniProt Q8IVH8); settings: MAP4K3 (Entrez MAP4K3), read-out: Residual activity (%)
Procedure: as §1, §2, §3, §4

IRAK1 = IRAK1 (Homo sapiens, UniProt P51617); settings: IRAK1 (Entrez IRAK1), read-out: Residual activity (%)
Procedure: as §1, §2, §3, §4

MST4 = MST4 (Homo sapiens, UniProt Q9P289); settings: MST4 (Entrez STK26), read-out: Residual activity (%)
Procedure: as §1, §2, §3, §4

JNK3 = JNK3 (Homo sapiens, UniProt P53779); settings: JNK3 (Entrez MAPK10), read-out: Residual activity (%)
Procedure: as §1, §2, §3, §4

ERK2 = ERK2 (Homo sapiens, UniProt P28482); settings: ERK2 (Entrez MAPK1), read-out: Residual activity (%)
Procedure: as §1, §2, §3, §4

HER4 = HER4 (Homo sapiens, UniProt Q15303); settings: HER4 (Entrez ERBB4), read-out: Residual activity (%)
Procedure: as §1, §2, §3, §4

RSK2 = RSK2 (Homo sapiens, UniProt P51812); settings: RSK2 (Entrez RPS6KA3), read-out: Residual activity (%)
Procedure: as §1, §2, §3, §4

p38a MAPK = p38a MAPK (Homo sapiens, UniProt Q16539); settings: p38a MAPK (Entrez MAPK14), read-out: Residual activity (%)
Procedure: as §1, §2, §3, §4

PAK2 = PAK2 (Homo sapiens, UniProt Q13177); settings: PAK2 (Entrez PAK2), read-out: Residual activity (%)
Procedure: as §1, §2, §3, §4

PKA = PKA (Homo sapiens, UniProt P17612); settings: PKA (Entrez PRKAC), read-out: Residual activity (%)
Procedure: as §1, §2, §3, §4

AMPK (hum) = AMPK (hum) (Homo sapiens, UniProt Q13131); settings: AMPK (hum) (Entrez PRKAA1 + PRKAB2 + PRKAG1), read-out: Residual activity (%)
Procedure: as §1, §2, §3, §4

EPH-B3 = EPH-B3 (Homo sapiens, UniProt P54753); settings: EPH-B3 (Entrez EPHB3), read-out: Residual activity (%)
Procedure: as §1, §2, §3, §4

PRK2 = PRK2 (Homo sapiens, UniProt Q16513); settings: PRK2 (Entrez PKN2), read-out: Residual activity (%)
Procedure: as §1, §2, §3, §4

MARK4 = MARK4 (Homo sapiens, UniProt Q96L34); settings: MARK4 (Entrez MARK4), read-out: Residual activity (%)
Procedure: as §1, §2, §3, §4

RIPK2 = RIPK2 (Homo sapiens, UniProt O43353); settings: RIPK2 (Entrez RIPK2), read-out: Residual activity (%)
Procedure: as §1, §2, §3, §4

PLK1 = PLK1 (Homo sapiens, UniProt P53350); settings: PLK1 (Entrez PLK1), read-out: Residual activity (%)
Procedure: as §1, §2, §3, §4

HIPK3 = HIPK3 (Homo sapiens, UniProt Q9H422); settings: HIPK3 (Entrez HIPK3), read-out: Residual activity (%)
Procedure: as §1, §2, §3, §4

PDGFRA = PDGFRA (Homo sapiens, UniProt P16234); settings: PDGFRA (Entrez PDGFRA), read-out: Residual activity (%)
Procedure: as §1, §2, §3, §4

YES1 = YES1 (Homo sapiens, UniProt P07947); settings: YES1 (Entrez YES1), read-out: Residual activity (%)
Procedure: as §1, §2, §3, §4

MST2 = MST2 (Homo sapiens, UniProt Q13188); settings: MST2 (Entrez STK3), read-out: Residual activity (%)
Procedure: as §1, §2, §3, §4

EPH-B1 = EPH-B1 (Homo sapiens, UniProt P54762); settings: EPH-B1 (Entrez EPHB1), read-out: Residual activity (%)
Procedure: as §1, §2, §3, §4

IR = IR (Homo sapiens, UniProt P06213); settings: IR (Entrez INSR), read-out: Residual activity (%)
Procedure: as §1, §2, §3, §4

EPH-B2 = EPH-B2 (Homo sapiens, UniProt P29323); settings: EPH-B2 (Entrez EPHB2), read-out: Residual activity (%)
Procedure: as §1, §2, §3, §4

Sequence of RIPK2 (O43353 whole entry): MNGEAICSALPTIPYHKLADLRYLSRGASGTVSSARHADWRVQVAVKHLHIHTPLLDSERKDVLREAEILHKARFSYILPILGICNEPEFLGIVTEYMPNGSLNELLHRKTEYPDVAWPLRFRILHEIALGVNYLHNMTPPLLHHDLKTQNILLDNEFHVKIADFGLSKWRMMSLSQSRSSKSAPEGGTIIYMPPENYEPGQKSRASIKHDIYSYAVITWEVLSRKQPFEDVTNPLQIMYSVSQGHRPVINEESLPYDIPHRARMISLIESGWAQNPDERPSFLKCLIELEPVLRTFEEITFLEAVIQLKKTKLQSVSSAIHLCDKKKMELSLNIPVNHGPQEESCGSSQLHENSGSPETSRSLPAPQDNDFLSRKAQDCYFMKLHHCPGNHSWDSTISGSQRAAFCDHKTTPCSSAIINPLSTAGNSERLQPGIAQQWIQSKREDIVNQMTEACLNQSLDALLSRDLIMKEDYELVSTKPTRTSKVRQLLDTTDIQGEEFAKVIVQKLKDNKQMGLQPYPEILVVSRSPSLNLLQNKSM
Sequence of HER4 (Q15303 26-1308): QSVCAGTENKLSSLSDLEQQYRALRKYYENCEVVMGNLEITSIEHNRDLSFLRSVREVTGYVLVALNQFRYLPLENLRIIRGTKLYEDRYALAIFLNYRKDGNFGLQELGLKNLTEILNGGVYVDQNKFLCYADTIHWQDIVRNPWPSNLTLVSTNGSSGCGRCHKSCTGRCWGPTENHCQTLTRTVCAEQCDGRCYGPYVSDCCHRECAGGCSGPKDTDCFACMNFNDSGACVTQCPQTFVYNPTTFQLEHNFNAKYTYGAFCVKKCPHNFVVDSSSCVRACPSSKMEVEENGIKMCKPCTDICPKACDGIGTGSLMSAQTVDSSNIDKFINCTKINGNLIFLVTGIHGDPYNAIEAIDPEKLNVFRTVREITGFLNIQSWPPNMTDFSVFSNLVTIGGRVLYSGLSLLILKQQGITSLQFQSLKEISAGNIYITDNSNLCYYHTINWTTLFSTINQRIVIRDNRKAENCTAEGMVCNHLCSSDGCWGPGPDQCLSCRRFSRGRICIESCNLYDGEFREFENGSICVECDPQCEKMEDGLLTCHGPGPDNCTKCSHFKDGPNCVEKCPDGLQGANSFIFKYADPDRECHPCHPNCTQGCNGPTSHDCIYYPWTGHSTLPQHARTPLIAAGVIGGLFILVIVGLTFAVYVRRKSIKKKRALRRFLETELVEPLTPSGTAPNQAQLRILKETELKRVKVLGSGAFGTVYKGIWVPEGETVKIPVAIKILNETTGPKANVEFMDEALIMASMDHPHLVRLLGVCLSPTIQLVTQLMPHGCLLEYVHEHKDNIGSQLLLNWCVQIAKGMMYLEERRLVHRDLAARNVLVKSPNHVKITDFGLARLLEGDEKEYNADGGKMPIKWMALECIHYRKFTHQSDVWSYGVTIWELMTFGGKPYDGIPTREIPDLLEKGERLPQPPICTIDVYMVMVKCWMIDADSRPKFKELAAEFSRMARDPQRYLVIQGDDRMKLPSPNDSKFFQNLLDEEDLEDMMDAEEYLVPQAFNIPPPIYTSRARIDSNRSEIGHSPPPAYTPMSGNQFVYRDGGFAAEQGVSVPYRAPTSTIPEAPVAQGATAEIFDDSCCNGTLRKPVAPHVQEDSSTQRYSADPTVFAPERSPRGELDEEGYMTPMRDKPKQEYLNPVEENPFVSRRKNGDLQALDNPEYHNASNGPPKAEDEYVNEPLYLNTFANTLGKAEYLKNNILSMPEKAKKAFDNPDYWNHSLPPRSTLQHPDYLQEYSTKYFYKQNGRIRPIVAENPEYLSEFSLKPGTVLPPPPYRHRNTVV
Sequence of MARK3 (P27448 whole entry): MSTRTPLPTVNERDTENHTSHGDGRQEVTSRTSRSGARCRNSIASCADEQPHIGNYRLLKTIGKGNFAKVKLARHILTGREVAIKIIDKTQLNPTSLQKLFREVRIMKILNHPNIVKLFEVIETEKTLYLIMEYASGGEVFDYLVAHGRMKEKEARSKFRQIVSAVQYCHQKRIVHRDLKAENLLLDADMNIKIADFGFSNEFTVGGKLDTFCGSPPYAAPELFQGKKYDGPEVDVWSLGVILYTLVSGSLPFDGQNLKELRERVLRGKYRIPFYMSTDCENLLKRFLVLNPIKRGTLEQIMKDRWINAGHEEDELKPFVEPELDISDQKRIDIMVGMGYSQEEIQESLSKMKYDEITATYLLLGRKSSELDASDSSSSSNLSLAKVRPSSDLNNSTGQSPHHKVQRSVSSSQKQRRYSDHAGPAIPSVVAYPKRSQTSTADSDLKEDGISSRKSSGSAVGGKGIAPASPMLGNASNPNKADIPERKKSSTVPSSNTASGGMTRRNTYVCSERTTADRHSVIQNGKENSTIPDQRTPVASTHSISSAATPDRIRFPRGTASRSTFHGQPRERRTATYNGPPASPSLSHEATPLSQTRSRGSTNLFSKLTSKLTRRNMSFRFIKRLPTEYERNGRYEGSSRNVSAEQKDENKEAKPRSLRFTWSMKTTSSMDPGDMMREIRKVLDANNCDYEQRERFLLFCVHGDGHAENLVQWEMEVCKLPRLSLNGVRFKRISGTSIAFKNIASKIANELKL
Sequence of EPH-B2 (P29323 19-1055): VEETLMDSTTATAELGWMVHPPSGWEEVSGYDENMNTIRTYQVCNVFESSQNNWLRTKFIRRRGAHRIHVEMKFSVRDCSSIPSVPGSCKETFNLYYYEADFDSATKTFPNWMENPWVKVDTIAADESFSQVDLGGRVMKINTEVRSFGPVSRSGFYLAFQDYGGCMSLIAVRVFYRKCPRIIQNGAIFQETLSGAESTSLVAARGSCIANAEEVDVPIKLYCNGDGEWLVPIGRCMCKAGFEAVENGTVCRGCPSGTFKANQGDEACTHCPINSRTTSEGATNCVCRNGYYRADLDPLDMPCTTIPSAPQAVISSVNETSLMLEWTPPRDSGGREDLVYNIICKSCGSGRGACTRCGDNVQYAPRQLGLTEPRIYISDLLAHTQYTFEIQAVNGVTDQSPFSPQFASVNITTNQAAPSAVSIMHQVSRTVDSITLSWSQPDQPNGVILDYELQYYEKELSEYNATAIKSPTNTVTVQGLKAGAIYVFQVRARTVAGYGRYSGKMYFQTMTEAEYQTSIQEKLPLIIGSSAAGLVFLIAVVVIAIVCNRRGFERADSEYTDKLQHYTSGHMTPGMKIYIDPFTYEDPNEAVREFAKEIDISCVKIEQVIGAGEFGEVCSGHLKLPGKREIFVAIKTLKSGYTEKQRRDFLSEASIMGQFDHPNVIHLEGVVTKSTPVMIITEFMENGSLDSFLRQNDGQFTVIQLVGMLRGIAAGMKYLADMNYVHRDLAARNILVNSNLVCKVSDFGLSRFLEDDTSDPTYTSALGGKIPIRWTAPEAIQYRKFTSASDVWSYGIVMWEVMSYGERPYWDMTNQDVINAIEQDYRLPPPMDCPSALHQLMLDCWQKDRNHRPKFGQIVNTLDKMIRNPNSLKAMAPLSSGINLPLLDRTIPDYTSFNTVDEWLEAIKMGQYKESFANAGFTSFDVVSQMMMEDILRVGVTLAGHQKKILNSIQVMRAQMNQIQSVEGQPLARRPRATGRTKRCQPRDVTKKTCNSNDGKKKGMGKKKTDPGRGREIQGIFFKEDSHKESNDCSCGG
Sequence of EPH-B1 (P54762 18-984, species assumed): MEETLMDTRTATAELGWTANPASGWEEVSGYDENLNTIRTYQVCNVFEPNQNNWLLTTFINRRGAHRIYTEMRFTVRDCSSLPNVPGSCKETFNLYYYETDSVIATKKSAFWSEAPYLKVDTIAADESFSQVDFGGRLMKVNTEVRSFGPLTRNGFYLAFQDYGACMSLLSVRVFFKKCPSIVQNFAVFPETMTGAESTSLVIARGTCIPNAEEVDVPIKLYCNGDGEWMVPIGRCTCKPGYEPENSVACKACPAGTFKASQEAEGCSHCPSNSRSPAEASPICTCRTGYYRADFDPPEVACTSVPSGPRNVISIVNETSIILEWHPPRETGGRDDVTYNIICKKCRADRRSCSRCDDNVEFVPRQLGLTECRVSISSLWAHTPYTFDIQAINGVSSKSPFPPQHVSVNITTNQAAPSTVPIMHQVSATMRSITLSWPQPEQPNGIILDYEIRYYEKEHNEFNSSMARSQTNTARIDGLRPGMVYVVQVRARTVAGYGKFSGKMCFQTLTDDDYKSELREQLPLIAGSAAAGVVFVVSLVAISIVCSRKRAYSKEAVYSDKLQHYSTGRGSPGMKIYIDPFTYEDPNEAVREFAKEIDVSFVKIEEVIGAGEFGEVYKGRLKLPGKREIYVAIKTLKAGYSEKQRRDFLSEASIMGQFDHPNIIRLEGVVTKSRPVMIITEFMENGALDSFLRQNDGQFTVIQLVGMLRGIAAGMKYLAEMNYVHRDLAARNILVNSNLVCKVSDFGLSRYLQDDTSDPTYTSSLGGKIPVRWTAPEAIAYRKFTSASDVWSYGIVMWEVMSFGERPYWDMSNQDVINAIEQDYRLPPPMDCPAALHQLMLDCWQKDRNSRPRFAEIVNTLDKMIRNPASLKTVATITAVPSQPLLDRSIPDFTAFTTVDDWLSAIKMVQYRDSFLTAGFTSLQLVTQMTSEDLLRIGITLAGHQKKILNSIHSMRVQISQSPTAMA
Sequence of PAK2 (Q13177 whole entry): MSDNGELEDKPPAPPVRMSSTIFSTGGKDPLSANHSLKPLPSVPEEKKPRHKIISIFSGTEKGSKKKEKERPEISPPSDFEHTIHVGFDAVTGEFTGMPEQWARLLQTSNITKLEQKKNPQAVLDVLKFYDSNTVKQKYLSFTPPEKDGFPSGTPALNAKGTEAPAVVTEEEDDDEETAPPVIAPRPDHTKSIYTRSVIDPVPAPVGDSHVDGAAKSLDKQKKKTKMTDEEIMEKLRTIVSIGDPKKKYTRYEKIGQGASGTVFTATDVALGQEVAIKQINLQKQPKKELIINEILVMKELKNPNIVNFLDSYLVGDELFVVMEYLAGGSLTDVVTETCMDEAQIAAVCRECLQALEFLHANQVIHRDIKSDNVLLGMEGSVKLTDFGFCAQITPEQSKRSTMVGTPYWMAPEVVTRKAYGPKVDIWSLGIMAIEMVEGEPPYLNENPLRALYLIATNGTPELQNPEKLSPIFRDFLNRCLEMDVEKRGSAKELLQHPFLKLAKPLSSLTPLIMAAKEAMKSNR

Compound `COc1ccc(Nc2ncnc3c2ccn3-c2ccc(C)c(C)c2)cc1Cl` [compound 36] has a remaining activity at 1 µM (MARK3) of 104%, a remaining activity at 1 µM (SIK3) of 123% and a remaining activity at 1 µM (CK2) of 97%. It also gave a remaining activity at 1 µM (EPH-A4) of 101%, a remaining activity at 1 µM (TTK) of 87% and a remaining activity at 1 µM (BRK) of 126%. For the same compound, the remaining activity at 1 µM (MAPKAP-K2) was 109%, the remaining activity at 1 µM (TIE2) was 105% and the remaining activity at 1 µM (MAP4K3) was 92%. For the same compound, the remaining activity at 1 µM (IRAK1) was 98%, the remaining activity at 1 µM (MST4) was 99% and the remaining activity at 1 µM (JNK3) was 89%. The remaining activity at 1 µM (ERK2) was 110%, the remaining activity at 1 µM (HER4) was 80% and the remaining activity at 1 µM (RSK2) was 77%. The remaining activity at 1 µM (p38a MAPK) was 98%, the remaining activity at 1 µM (PAK2) was 99% and the remaining activity at 1 µM (PKA) was 80%. The remaining activity at 1 µM (AMPK (hum)) was 94%, the remaining activity at 1 µM (EPH-B3) was 79% and the remaining activity at 1 µM (PRK2) was 86%. For the same compound, the remaining activity at 1 µM (MARK4) was 76%, the remaining activity at 1 µM (RIPK2) was 92% and the remaining activity at 1 µM (PLK1) was 90%. The remaining activity at 1 µM (HIPK3) was 76%, the remaining activity at 1 µM (PDGFRA) was 70% and the remaining activity at 1 µM (YES1) was 98%. It also gave a remaining activity at 1 µM (MST2) of 86%, a remaining activity at 1 µM (EPH-B1) of 126% and a remaining activity at 1 µM (IR) of 108%. The remaining activity at 1 µM (EPH-B2) was 97%.
